According to ChEMBL document CHEMBL1149983, “Probing the S-1 subsite selectivity of an industrial alkaline protease in anhydrous t-butanol” (Bioorg Med Chem Lett, 1993):
Peptide text beside a SMILES is read from it. * marks the point of attachment. Cbz = O=C(OCc1ccccc1)*

Test: Reaction time taken for industrial alkaline protease catalyzed synthesis using CBz-Phe-OCP as acyl donor and Gly-NH2 as nucleophile

Question: For `CC(C)C[C@H](NC(=O)CNC(=O)[C@H](Cc1ccccc1)NC(=O)OCc1ccccc1)C(N)=O` (Cbz-Phe-Gly-Leu-NH2), which Reaction time is on record?
Answer: 1 h

Question: Which Reaction time does the source give for `NC(=O)CNC(=O)[C@H](Cc1ccccc1)NC(=O)OCc1ccccc1` (Cbz-Phe-Gly-NH2) here?
Answer: 1 h

Question: Which Reaction time does the source give for `NC(=O)[C@H](Cc1ccccc1)NC(=O)CNC(=O)[C@H](Cc1ccccc1)NC(=O)OCc1ccccc1` (Cbz-Phe-Gly-Phe-NH2) here?
Answer: 1 h

Question: Which Reaction time does the source give for `CCCOC(=O)[C@@H](C)NC(=O)[C@H](CC(=O)OCc1ccccc1)NC(=O)OCc1ccccc1` here?
Answer: 2 h

Question: With `NC(=O)CNC(=O)CNC(=O)[C@H](Cc1ccccc1)NC(=O)OCc1ccccc1` (Cbz-Phe-Gly-Gly-NH2) as the compound, how does the Reaction time read?
Answer: 1.5 h

Question: For `CC(C)C[C@@H](NC(=O)[C@H](Cc1ccccc1)NC(=O)OCc1ccccc1)C(N)=O`, which Reaction time is on record?
Answer: 1.5 h

Question: Which Reaction time does the source give for `NC(=O)[C@@H](Cc1ccccc1)NC(=O)[C@H](Cc1ccccc1)NC(=O)OCc1ccccc1` here?
Answer: 2 h

Question: Which Reaction time does the source give for `CC(C)C[C@H](NC(=O)[C@H](Cc1ccccc1)NC(=O)OCc1ccccc1)C(N)=O` here?
Answer: 1 h

Question: For `NC(=O)[C@H](Cc1ccccc1)NC(=O)[C@H](Cc1ccccc1)NC(=O)OCc1ccccc1`, which Reaction time is on record?
Answer: 1 h
